Key:
[1] = biological target: T1, SHP-2 PTP domain GST fusion protein (Homo sapiens, UniProt Q06124); assay: in vitro protein tyrosine phosphatase assay, SHP-2 (Malachite Green); assay type: biochemical; parameters: SHP-2 PTP domain GST fusion protein purified in house was used as the enzyme; made in house; conditions: compound at 100 μM; read-out: inhibition of SHP-2 enzymatic activity
T1 sequence (Q06124 247-517 limits assumed): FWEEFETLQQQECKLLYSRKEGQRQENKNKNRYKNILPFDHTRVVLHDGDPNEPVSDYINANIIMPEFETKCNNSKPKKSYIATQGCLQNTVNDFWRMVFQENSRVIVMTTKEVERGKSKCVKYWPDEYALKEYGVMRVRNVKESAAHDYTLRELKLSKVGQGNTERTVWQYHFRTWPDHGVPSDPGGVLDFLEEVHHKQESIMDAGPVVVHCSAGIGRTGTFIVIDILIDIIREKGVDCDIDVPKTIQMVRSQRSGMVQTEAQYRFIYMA
Source text: Candidate compounds were screened using the in vitro protein tyrosine phosphatase (PTP) assay kit (Sigma, St. Lois, Mo.). SHP-2 PTP domain GST fusion protein purified in house was used as the enzyme and a phospho-peptide corresponding to the surrounding sequence of pTyr^1146 in the insulin receptor (Thr-Arg-Asp-Ile-Tyr[PO3H2]-Glu-Thr-Asp-Tyr-Tyr) were used as the substrate. The assay determines free phosphate generated by dephosphorylation of the PTP substrate using the Malachite Green reagent. Briefly, 0.5 μg of GST-SHP-2 PTP was incubated in 40 μL assay buffer (25 mM Tris-HCl, PH7.4, 50 mM NaCl, 5 mM DTT, and 2.5 mM EDTA) with test compounds at various concentrations or DMSO at room temperature for 30 min. The PTP substrate was then added to a final concentration of 0.2 mM. The system was incubated at 30° C. for 30 min. Finally, 50 μl of Malachite Green solution was added and OD620 was measured after 5 min. In the phosphatase assays for SHP-1, CD45, TC-PTP, PTP-MEG2 (PTPN9), and LAR (PTPRF), procedures were similar, with the exception that GST-SHP-1, GST-CD45 cytoplasmic domain, GST-TC-PTP, GST-PTP-MEG2 PTP domain, and GST-LAR PTP domain purchased from Biomol International, L.P. (Plymouth Meeting, Pa.) were used instead as the enzymes.
Candidate compounds identified by CADD were screened by the in vitro tyrosine phosphatase assay as described in the Experimental Section. The GST-SHP-2 PTP domain fusion protein was incubated with the compounds at room temperature for 30 min before the phospho-peptide substrate was added to the assay systems, allowing compounds to bind to target sites in SHP-2. Each test compound was dissolved in DMSO. Initial concentration of the test compounds was 100 μM. In the experimental assay, DMSO was included as the negative control and sodium orthovanadate (100 μM), a general non-specific tyrosine phosphatase inhibitor, was used as the positive control. From the 165 commercially available compounds tested, we identified 9 compounds that inhibit SHP-2 catalytic activity with various efficiencies (FIG. 3A). […] The inhibitory effects of the compounds were dose-dependent.

[2] = biological target: T1, SHP-2 PTP domain GST fusion protein; assay: fluorescence titration (quenching of SHP-2 fluorescence); assay type: binding; parameters: Purified SHP-2 PTP domain GST-fusion protein was diluted into 20 mM Tris-HCl; made in house; conditions: SHP-2 protein 3 μM, excitation 295 nm
Method: For all experiments, Purified SHP-2 PTP domain GST-fusion protein was diluted into 20 mM Tris-HCl, pH 7.5. Fluorescence spectra were recorded with a Luminescence Spectrometer LS50 (Perkin-Elmer, Boston, Mass.). Titrations were performed by increasing the test compound concentration while maintaining the SHP-2 protein concentration at 3 μM. Contributions from background fluorescence of the inhibitors were accounted for by subtracting the fluorescence of the inhibitors alone from the of the protein-inhibitor solution. The excitation wavelength was 295 nm and fluorescence was monitored from 360 to 500 nm. All reported fluorescence intensities are relative values and are not corrected for wavelength variations in detector response.
To validate that the active compounds identified were binding directly to the SHP-2 protein, we determined whether the active compounds directly interacted with the SHP-2 PTP domain using fluorescence quenching and taking advantage of the four tryptophans in the PTP domain, with Trp248 located 15 Å from the putative pY+5 pocket and Trp423 located 8 Å from the phosphatase active site. […] Therefore, their binding to SHP-2 protein could not be determined using this measurement. Thus, the fluorescence quenching experiments indicate that at least four active compounds identified do directly bind to SHP-2, thereby leading to their biological activities.

Compound | inhibition at 100 µM [1] | quenching of SHP-2 fluorescence [2]
CNC(=S)NNC(=O)c1csc(-c2cccs2)n1 [#226] | 40% | –
CNC(=S)NNC(=O)CSCCS(=O)(=O)c1ccccc1 [#234] | – | did not show significant quenching
CCc1ccc(OCC(=O)Nc2ccc(S(N)(=O)=O)cc2)cc1 [#270] | – | did not show significant quenching
CSc1ccc(C2C(C#N)=C(N)Oc3[nH]nc(-c4ccccc4Cl)c32)cc1 (centres unmarked) [#284] | – | strong quenching
O=C(CCCn1c(=O)c2cccn2c2cccnc21)NCc1ccccc1F [#212] | 45% | –

— patent US8673913B2, “SHP-2 phosphatase inhibitor” (Case Western Reserve University, priority 2009, dated 2014)
